Earlier results, collected in paper PMC10842190 (ACS sensors, 2023).

Tests used:
[1] = system: damaged collagen triple helices

Compound	Annealing to damaged collagen triple helices [1]	Toxicity to human cells (human cells)
(Gly-Ser)2-Gly-(Hyp-flp-Gly)7	cannot anneal	–
(Gly-Ser)2-Gly-(flp-Hyp-Gly)7	can anneal	–
O=C(O)[C@@H]1C[C@H](F)CN1 [H-flp-OH, (2S,4S)-4-fluoroproline]	–	not toxic
